Reference: patent publication US9290511B2, “Thieno-pyrimidines, useful as potassium channel inhibitors” (XENTION LIMITED, priority 2011, dated 2016)

Biological target: T1, Kir3.1/3.4 (Rattus norvegicus, UniProt P48548+P63251)
T1 construct: expressed in transfected cells
T1 sequence (P63251 1-501): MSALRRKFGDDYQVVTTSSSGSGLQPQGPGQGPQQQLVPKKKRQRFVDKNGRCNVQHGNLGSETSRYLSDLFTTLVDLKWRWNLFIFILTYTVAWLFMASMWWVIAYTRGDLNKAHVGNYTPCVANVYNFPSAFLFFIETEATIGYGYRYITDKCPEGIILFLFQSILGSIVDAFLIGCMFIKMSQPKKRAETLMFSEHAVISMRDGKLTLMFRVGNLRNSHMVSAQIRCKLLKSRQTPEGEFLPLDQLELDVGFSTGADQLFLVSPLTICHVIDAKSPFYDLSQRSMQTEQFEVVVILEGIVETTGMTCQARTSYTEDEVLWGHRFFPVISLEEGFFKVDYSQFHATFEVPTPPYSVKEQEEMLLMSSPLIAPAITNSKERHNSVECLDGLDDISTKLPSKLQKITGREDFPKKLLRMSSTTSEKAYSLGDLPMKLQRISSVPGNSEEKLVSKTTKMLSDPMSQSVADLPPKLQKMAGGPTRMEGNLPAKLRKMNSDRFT
T1 sequence (P48548 1-419): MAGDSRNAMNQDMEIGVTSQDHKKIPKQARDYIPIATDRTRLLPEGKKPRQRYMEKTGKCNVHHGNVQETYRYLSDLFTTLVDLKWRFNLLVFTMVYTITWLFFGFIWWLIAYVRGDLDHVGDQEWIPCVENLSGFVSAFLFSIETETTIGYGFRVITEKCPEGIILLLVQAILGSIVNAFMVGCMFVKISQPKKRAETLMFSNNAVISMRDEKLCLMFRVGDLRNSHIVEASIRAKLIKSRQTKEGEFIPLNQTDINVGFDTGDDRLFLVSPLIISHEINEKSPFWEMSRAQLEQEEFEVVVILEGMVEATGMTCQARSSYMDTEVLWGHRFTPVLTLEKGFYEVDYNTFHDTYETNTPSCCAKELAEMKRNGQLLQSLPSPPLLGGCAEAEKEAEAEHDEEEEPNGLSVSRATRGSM
Test: Kir3.1/3.4 Electrophysiology Method (manual whole-cell patch clamp)
Assay type: cell-based
Conditions: Electrophysiology Method (TABLE 1)
Procedure, shortened: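 Percent inhibition is relative to the pre-drug current, both leak-subtracted using a potassium-free bather, taken as the mean current at −140 mV. The protocol was a step to +60 mV, a ramp to −140 mV, then a return to −60 mV holding, every 10 s. Cells were rat Kir3.1/3.4-transfected HEK293 recorded by whole-cell patch clamp.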

| Compound | IC50 [nM] |
| --- | --- |
| c1ccc(-c2csc3nc(C4CC4)nc(N4C5CCC4CC(NC4CCC4)C5)c23)cc1 (centres unmarked) [Example 321, N-cyclobutyl-8-(2-cyclopropyl-5-phenyl-thieno[2,3-d]pyrimidin-4-yl)-8-azabicyclo[3.2.1]octan-3-amine] | < 500 |
| FC(F)(F)c1nc(N2CCC(COCCN3CCCC3)CC2)c2c(-c3ccccc3)csc2n1 [Example 340, 5-phenyl-4-[4-(2-pyrrolidin-1-ylethoxymethyl)-1-piperidyl]-2-(trifluoromethyl)thieno[2,3-d]pyrimidine] | < 500 |
| CC(C)C(=O)Nc1sc2nc(N3CCC(COCCN4CCCC4)CC3)ncc2c1-c1ccccc1 [Example 304] | < 500 |
| COCC1C[C@H]2CC[C@@H](C1)N2c1nc(OC2CC3CC2CN3)nc2sc(C(=O)N(C)C)c(-c3ccccc3)c12 (stereo partly drawn) [Example 366, 2-(2-azabicyclo[2.2.1]heptan-5-yloxy)-4-[(1S,5R)-3-(methoxymethyl)-8-azabicyclo[3.2.1]octan-8-yl]-N,N-dimethyl-5-phenyl-thieno[2,3-d]pyrimidine-6-carboxamide] | 500 to 3000 |
| c1ccc(-c2csc3ncnc(N4CCC(CNCc5ccccn5)CC4)c23)cc1 [Example 66, N-[[1-(5-phenylthieno[2,3-d]pyrimidin-4-yl)-4-piperidyl]methyl]-1-(2-pyridyl)methanamine] | < 500 |
| COCCNCC1CCN(c2nc(N3CCC(COC)CC3)c3c(-c4ccccc4)csc3n2)CC1 [Example 192] | < 500 |
| CN1CCCC1CCNCC1CCN(c2ncnc3scc(-c4ccccc4)c23)C1 (centres unmarked) [Example 204] | < 500 |
| COCC1CC2CCC(C1)N2c1nc(N2CCOCC2)c2c(-c3ccccc3)csc2n1 (centres unmarked) [Example 300] | 500 to 3000 |
| COc1ccccc1-c1csc2ncnc(N3C4CCC3CC(COCCN3CCCC3)C4)c12 (centres unmarked) [Example 362] | < 500 |
| NC(=O)[C@@H]1CCN(CCN2CCN(c3ncc4c(-c5ccccc5)csc4n3)CC2)C1 [Example 150] | 500 to 3000 |
| COc1ncc(F)cc1-c1csc2ncnc(N3C4CCC3CC(NC3CCC3)C4)c12 (centres unmarked) [Example 346] | 500 to 3000 |
| CC(C)c1csc2ncnc(N3C4CCC3CC(COCCN3CCCC3)C4)c12 (centres unmarked) [Example 287] | < 500 |
| O[C@H]1CN(CC2CCN(c3ncnc4scc(-c5ccccc5)c34)CC2)C[C@@H]1N1CCCC1 [Example 67, (3S,4S)-1-[[1-(5-phenylthieno[2,3-d]pyrimidin-4-yl)-4-piperidyl]methyl]-4-pyrrolidin-1-yl-pyrrolidin-3-ol] | < 500 |
| CC(C)c1csc2ncnc(N3C4CCC3CC(OCCN3CCCC3)C4)c12 (centres unmarked) [Example 297] | < 500 |
| CN1CCC(N(C)CC2CCN(c3nc(N4CCCCC4C(N)=O)nc4scc(-c5ccccc5)c34)CC2)C1 (centres unmarked) [Example 129] | 500 to 3000 |
| Cc1ccccc1-c1csc2ncnc(N3C4CCC3CC(NC3CCC3)C4)c12 (centres unmarked) [Example 344] | < 500 |
| NC(=O)[C@H]1CCCN1CCN1CCN(c2ncc3c(-c4ccccc4)csc3n2)CC1 [Example 147] | < 500 |
| CN(CC(=O)N1CCCC1)CC1CCN(c2ncnc3scc(-c4ccccc4)c23)CC1 [Example 93, 2-[methyl-[[1-(5-phenylthieno[2,3-d]pyrimidin-4-yl)-4-piperidyl]methyl]amino]-1-pyrrolidin-1-yl-ethanone] | 500 to 3000 |
| COc1ncccc1-c1csc2ncnc(N3C4CCC3CC(NC3CCC3)C4)c12 (centres unmarked) [Example 345] | < 500 |
| Cc1csc2ncnc(N3CC(CNCCC4CCCN4C)CC3c3ccccc3)c12 (centres unmarked) [Example 210] | < 500 |
| Fc1ccc(-c2csc3ncnc(N4CC5C(COCCN6CC[C@@H](F)C6)C5C4)c23)cc1 (some centres unmarked) [Example 278] | < 500 |
| Fc1ccc(-c2csc3nc(Cl)nc(N4CCC(COCCN5CCCC5)CC4)c23)cc1 [Example 279] | < 500 |
| CN1CC(NCC2CCN(c3ncnc4scc(-c5ccccc5)c34)CC2)CC1=O (centres unmarked) [Example 91, 1-methyl-4-[[1-(5-phenylthieno[2,3-d]pyrimidin-4-yl)-4-piperidyl]methylamino]pyrrolidin-2-one] | 500 to 3000 |
| CN(C)C1CCCN(CC2CCN(c3nc(NCCN4CCCC4)nc4scc(-c5ccccc5)c34)CC2)C1 (centres unmarked) [Example 117] | < 500 |
| CN1CCN(c2nc(N3CCC(CN(CCO)CCO)CC3)c3c(-c4ccccc4)csc3n2)CC1 [Example 107] | 500 to 3000 |

| Compound | IC50 [nM] |
| --- | --- |
| CN1CCCC1CCNCC1CCN(c2ncc3c(-c4ccccc4)csc3n2)CC1 (centres unmarked) [Example 146] | < 500 |
| CC(C)c1csc2ncnc(N3CCC(COCCN4CCCC4)CC3)c12 [Example 265] | < 500 |
| NC(=O)C1CN(c2nc(N3CCC(COCCN4CCCC4)CC3)nc3scc(-c4ccccc4)c23)CCO1 (centres unmarked) [Example 305] | < 500 |
| CC(C)OCC1CCN(c2ncnc3scc(-c4ccccc4)c23)CC1 [Example 15, 4-[4-(isopropoxymethyl)-1-piperidyl]-5-phenyl-thieno[2,3-d]pyrimidine] | 500 to 3000 |
| C[C@@H](CN(C)C)OCC1CCN(c2ncnc3scc(-c4ccccc4)c23)CC1 [Example 254] | < 500 |
| COC1CCN(CC2CCN(c3ncnc4scc(-c5ccccc5)c34)CC2)C1 (centres unmarked) [Example 68, 4-[4-[(3-methoxypyrrolidin-1-yl)methyl]-1-piperidyl]-5-phenyl-thieno[2,3-d]pyrimidine] | < 500 |
| OCC1(NCC2CCN(c3ncnc4scc(-c5ccccc5)c34)CC2)CCCC1 [Example 54, [1-[[1-(5-phenylthieno[2,3-d]pyrimidin-4-yl)-4-piperidyl]methylamino]cyclopentyl]methanol] | < 500 |
| O=C1CCCN1c1sc2ncnc(N3CCC(COCCN4CCCC4)CC3)c2c1-c1ccccc1 [Example 163] | < 500 |
| O=C(NCCN1CCCC1)C1CCN(c2ncnc3scc(-c4ccccc4)c23)C1 (centres unmarked) [Example 270] | 500 to 3000 |
| CN1CCCC1CNCC1CCN(c2ncnc3scc(-c4ccccc4)c23)CC1 (centres unmarked) [Example 84, N-[(1-methylpyrrolidin-2-yl)methyl]-1-[1-(5-phenylthieno[2,3-d]pyrimidin-4-yl)-4-piperidyl]methanamine] | < 500 |
| N-methyl-5-phenyl-thieno[2,3-d]pyrimidine-6-carboxamide [Example 343] | 500 to 3000 |
| CC(C)NC1CC2CCC(C1)N2c1ncnc2scc(-c3ccccc3)c12 (centres unmarked) [Example 327, N-isopropyl-8-(5-phenylthieno[2,3-d]pyrimidin-4-yl)-8-azabicyclo[3.2.1]octan-3-amine] | < 500 |
| CN(C)[C@@H]1CCN(CC2CCN(c3ncnc4scc(-c5ccccc5)c34)CC2)C1 [Example 81, (3R)-N,N-dimethyl-1-[[1-(5-phenylthieno[2,3-d]pyrimidin-4-yl)-4-piperidyl]methyl]pyrrolidin-3-amine] | < 500 |
| NC(=O)[C@@H]1CCCN1CC1CCN(c2ncnc3scc(-c4ccccc4)c23)CC1 [Example 106] | < 500 |
| c1nc(N2CCC(COCCN3CCCC3)CC2)c2c(-c3ccsc3)csc2n1 [Example 317] | < 500 |
| CN1CCN(c2nc(N3CCC(CNC4CCC4)CC3)c3c(-c4ccccc4)csc3n2)CC1 [Example 116] | < 500 |
| CNC(=O)C1CCCN(c2nc(N3CCC(CN(C)C4CCN(C)C4)CC3)c3c(-c4ccccc4)csc3n2)C1 (centres unmarked) [Example 227] | < 500 |
| CNC(=O)C1(NCC2CCN(c3ncnc4scc(-c5ccccc5)c34)CC2)CCC1 [Example 260] | < 500 |
| CN(C)c1nc(N2CCC(COCCN3CCCC3)CC2)nc2scc(-c3ccccc3)c12 [Example 275] | < 500 |
| O=[N+]([O-])c1ccc(-c2csc3ncnc(N4CCC(COCCN5CCCC5)CC4)c23)cc1 [Example 46, 5-(4-nitrophenyl)-4-[4-(2-pyrrolidin-1-ylethoxymethyl)-1-piperidyl]thieno[2,3-d]pyrimidine] | < 500 |
| CC1CCC(C)N1CC1CCN(c2ncnc3scc(-c4ccccc4)c23)CC1 (centres unmarked) [Example 98, 4-[4-[(2,5-dimethylpyrrolidin-1-yl)methyl]-1-piperidyl]-5-phenyl-thieno[2,3-d]pyrimidine] | 500 to 3000 |
| c1ccc(CNc2sc3ncnc(N4CCC(COCCN5CCCC5)CC4)c3c2-c2ccccc2)cc1 [Example 168, N-benzyl-5-phenyl-4-[4-(2-pyrrolidin-1-ylethoxymethyl)-1-piperidyl]thieno[2,3-d]pyrimidin-6-amine] | < 500 |
| CN1CCC(N(C)C(=O)C2CCN(c3ncnc4scc(-c5ccccc5)c34)CC2)C1 (centres unmarked) [Example 249] | < 500 |
| c1ccc(-c2csc3ncnc(N4C5CCC4CC(CN4CCCC4)C5)c23)cc1 (centres unmarked) [Example 335] | < 500 |
| COCC1CCN(c2nc(NCCN3CCCC3)nc3scc(-c4ccccc4)c23)CC1 [Example 175] | < 500 |
